≈ marks a conversion by molar mass, not a printed value. Read-outs that look alike come from different tables or passages of the source.
Assays:
Type in all cases: cell-based
[1] = test system: Methicillin-resistant Staphylococcus aureus (MRSA NRS-119); assay: MBC by plating from MIC wells; settings: read-out: MBC MRSA NRS119
Text: (§1) Based upon the initial results obtained, the active compounds were further screened against additional clinical isolates of methicillin-sensitive S. aureus (MSSA), methicillin-resistant S. aureus (MRSA), vancomycin-resistant S. aureus (VRSA), Staphylococcus epidermidis, vancomycin-resistant Enterococcus faecium (VRE), vancomycin-resistant Enterococcus faecalis (VRE) and Streptococcus pneumoniae, as presented in Table 2. Additionally, we examined whether the compounds were bacteriostatic (inhibit bacteria from growing) or bactericidal (kill bacteria) by determining the minimum bactericidal concentration (MBC). The MBC was determined by plating 5 μL from each well where no growth was present (in the MIC plates) onto tryptic soya agar plates and incubating plates at 37° C. for 24 hours. The MBC was categorized as the lowest concentration that generated a 99.9% reduction in bacterial colony-forming units (Table 3).

[2] = test system: Methicillin-resistant Staphylococcus aureus (MRSA NRS-123, USA400); assay: MBC by plating from MIC wells; settings: read-out: MBC MRSA NRS123 (USA400)
Text: as §1

[3] = test system: Vancomycin-resistant Staphylococcus aureus (VRSA12); assay: MBC by plating from MIC wells; settings: read-out: MBC VRSA12
Text: as §1

[4] = test system: Cephalosporin-resistant Streptococcus pneumoniae ATCC-700677; assay: MBC by plating from MIC wells
Text: as §1

[5] = test system: Vancomycin-resistant Enterococcus faecium ATCC-700221 (VRE ATCC-700221); assay: MBC by plating from MIC wells; settings: read-out: MBC VRE ATCC-700221
Text: as §1

[6] = test system: Methicillin-sensitive Staphylococcus aureus ATCC-6538 (MSSA ATCC-6538); assay: MBC by plating from MIC wells; settings: read-out: MBC MSSA ATCC-6538
Text: as §1

[7] = test system: Vancomycin-resistant Staphylococcus aureus (VRSA10); assay: MBC by plating from MIC wells; settings: read-out: MBC VRSA10
Text: as §1

[8] = test system: Methicillin-resistant Staphylococcus aureus (MRSA NRS-119); assay: MIC of active MY compounds; settings: read-out: MIC MRSA NRS119
Text: as §1
(§2) The minimum inhibitory concentrations (MICs) of the tested compounds and control drugs; linezolid, vancomycin, gentamicin (antibiotics) and fluconazole and 5-fluorocytosine (5-FC) (antifungal drugs) were determined using the broth microdilution method, according to guidelines outlined by the Clinical and Laboratory Standards Institute (CLSI)^1, 2, 3 against clinically-relevant bacterial (methicillin-resistant Staphylococcus aureus (MRSA), Escherichia coli and Clostridium difficile strains) and fungal (Candida albicans) strain. S. aureus and E. coli were grown aerobically overnight on tryptone soy agar plates at 37° C. C. difficile was grown anaerobically on brain heart infusion supplemented agar at 37° C. for 48 hours. C. albicans was grown aerobically overnight on yeast peptone dextrose (YPD) agar plate at 35° C. Afterwards, a bacterial solution equivalent to 0.5 McFarland standard was prepared and diluted in cation-adjusted Mueller-Hinton broth (CAMHB) (for S. aureus and E. coli) to achieve a bacterial concentration of about 5×10^5 CFU/mL. C. difficile was diluted in brain heart infusion supplemented broth, supplemented with yeast extract, hemin and vitamin K to achieve a bacterial concentration of about 5×10^5 CFU/mL. C. albicans was diluted in Roswell Park Memorial Institute (RPMI 1640) medium with glutamine and without bicarbonate (GIBCO by Life Technologies, Green Island, N.Y., USA) which was buffered to pH 7.0 with 0.165 M of [3-(N-morpholino) propanesulfonic acid] (MOPS) (dot scientific inc., Burton, Mich., USA) to achieve a fungal concentration of about 1.5×10^3 CFU/mL. Compounds and control drugs were added in the first row of the 96-well plates and serially diluted with the corresponding media containing bacteria/fungi. Plates were then, incubated aerobically at 37° C. for 18-20 hours (for S. aureus and E. coli). C. difficile was incubated anaerobically at 37° C. for 48 hours. C. albicans was incubated aerobically at 37° C. for 24 hours.

[9] = test system: Staphylococcus epidermidis (NRS-101); assay: MIC of active MY compounds; settings: NRS101, read-out: MIC S. epidermidis NRS 101
Text: as §1, §2

[10] = test system: Methicillin-resistant Staphylococcus aureus (MRSA NRS-123, USA400); assay: MIC of active MY compounds; settings: read-out: MIC MRSA NRS123 (USA400)
Text: as §1, §2

[11] = test system: Vancomycin-resistant Enterococcus fecalis ATCC-51299 (VRE ATCC-51299); assay: MIC of active MY compounds; settings: read-out: MIC VRE ATCC-51299
Text: as §1, §2

[12] = test system: Vancomycin-resistant Staphylococcus aureus (VRSA12); assay: MIC of active MY compounds; settings: read-out: MIC VRSA12
Text: as §1, §2

[13] = test system: Cephalosporin-resistant Streptococcus pneumoniae ATCC-700677; assay: MIC of active MY compounds; settings: ATCC700677, read-out: MIC S. pneumoniae ATCC 700677
Text: as §1, §2

[14] = test system: Cephalosporin-resistant Streptococcus pneumoniae ATCC-15916; assay: MIC of active MY compounds; settings: ATCC15916, read-out: MIC S. pneumoniae ATCC-15916
Text: as §1, §2

[15] = test system: Vancomycin-resistant Enterococcus faecium ATCC-700221 (VRE ATCC-700221); assay: MIC of active MY compounds; settings: read-out: MIC VRE ATCC-700221
Text: as §1, §2

[16] = test system: Methicillin-sensitive Staphylococcus aureus ATCC-6538 (MSSA ATCC-6538); assay: MIC of active MY compounds; settings: read-out: MIC MSSA ATCC-6538
Text: as §1, §2

[17] = test system: Vancomycin-resistant Staphylococcus aureus (VRSA10); assay: MIC of active MY compounds; settings: read-out: MIC VRSA10
Text: as §1, §2

[18] = test system: Methicillin-sensitive Staphylococcus aureus (MSSA NRS-107); assay: MIC of active MY compounds; settings: read-out: MIC MSSA NRS-107
Text: as §1, §2

[19] = test system: Listeria monocytogenes ATCC-19111; assay: MIC of active MY compounds; settings: ATCC19111, read-out: MIC L. monocytogenes ATCC-19111
[20] = ATCC700677, 99.9% reduction in CFU, read-out: MBC S. pneumoniae ATCC 700677

| SMILES | MBC ([1]; 99.9% reduction in CFU) [µg/mL] | MBC ([2]; 99.9% reduction in CFU) [µg/mL] | MBC ([3]; 99.9% reduction in CFU) [µg/mL] | MBC [4, 20] [µg/mL] | MBC ([5]; 99.9% reduction in CFU) [µg/mL] | MBC ([6]; 99.9% reduction in CFU) [µg/mL] | MBC ([7]; 99.9% reduction in CFU) [µg/mL] | MIC [8] [µg/mL] | MIC [9] [µg/mL] | MIC [10] [µg/mL] | MIC [11] [µg/mL] | MIC [12] [µg/mL] | MIC [13] [µg/mL] | MIC [14] [µg/mL] | MIC [15] [µg/mL] | MIC [16] [µg/mL] | MIC [17] [µg/mL] | MIC [18] [µg/mL] | MIC [19] [µg/mL] | also measured |
| --- | --- | --- | --- | --- | --- | --- | --- | --- | --- | --- | --- | --- | --- | --- | --- | --- | --- | --- | --- | --- |
| CC(=O)NC[C@H]1CN(c2ccc(N3CCOCC3)c(F)c2)C(=O)O1 [Linezolid, reference compound] | > 64 | 64 (≈ 190 µM) | 16 (≈ 47.4 µM) | 16 (≈ 47.4 µM) | 16 (≈ 47.4 µM) | 8 (≈ 23.7 µM) | > 64 | 64 | 0.5 | 1 | 1 | 1 | 1 | 1 | 1 | 0.5 | 1 | 1 | 0.5 | – |
| O=C(Nc1cccc(Nc2ccc(Cl)nn2)c1)Nc1ccc(Cl)c(Cl)c1 [MY14, 1-(3-((6-chloropyridazin-3-yl)amino)phenyl)-3-(3,4-dichlorophenyl)urea] | 8 (≈ 19.6 µM) | 8 (≈ 19.6 µM) | 32 (≈ 78.3 µM) | > 64 | > 64 | 32 (≈ 78.3 µM) | 8 (≈ 19.6 µM) | 4 | 8 | 4 | 64 | 4 | 4 | 4 | 32 | 2 | 2 | 4 | 8 | – |
| O=C(Nc1ccc(-c2ccc(=O)[nH]n2)cc1)Nc1ccc(Cl)c(Cl)c1 [MY21, 1-(3,4-dichlorophenyl)-3-(4-(6-oxo-1,6-dihydropyridazin-3-yl)phenyl)urea] | 1 (≈ 2.67 µM) | 8 (≈ 21.3 µM) | 8 (≈ 21.3 µM) | 4 (≈ 10.7 µM) | 4 (≈ 10.7 µM) | 4 (≈ 10.7 µM) | 2 (≈ 5.33 µM) | 1 | 1 | 1 | 4 | 1 | 2 | 2 | 2 | 1 | 1 | 1 | 0.5 | – |
| O=C(Nc1ccc(Oc2ccc(=O)[nH]n2)cc1)Nc1ccc(Cl)c(Cl)c1 [MY24, 1-(3,4-dichlorophenyl)-3-(4-((6-oxo-1,6-dihydropyridazin-3-yl)oxy)phenyl)urea] | 32 (≈ 81.8 µM) | > 64 | > 64 | > 64 | 16 (≈ 40.9 µM) | > 64 | > 64 | 1 | 1 | 1 | 4 | 2 | 2 | 2 | 4 | 1 | 1 | 1 | 1 | – |
| O=C(Nc1ccc(Oc2ccc(=O)[nH]n2)cc1)Nc1ccc(Cl)c(C(F)(F)F)c1 [MY31, 1-(4-chloro-3-(trifluoromethyl)phenyl)-3-(4-((6-oxo-1,6-dihydropyridazin-3-yl)oxy)phenyl)urea] | 2 (≈ 4.71 µM) | > 64 | > 64 | 2 (≈ 4.71 µM) | 4 (≈ 9.42 µM) | > 64 | > 64 | 0.5 | 0.5 | 0.5 | 2 | 1 | 0.5 | 0.5 | 1 | 0.5 | 0.5 | 0.5 | 0.5 | – |
| CNC(=O)c1cc(Oc2ccc(NC(=O)Nc3ccc(Cl)c(C(F)(F)F)c3)cc2)ccn1 [Sorafenib, reference compound] | > 64 | > 64 | > 64 | > 64 | > 64 | > 64 | > 64 | 2 | 8 | 4 | > 64 | 2 | 4 | 4 | > 64 | 4 | 4 | 8 | 4 | – |
| CN[C@H](CC(C)C)C(=O)N[C@H]1C(=O)N[C@@H](CC(N)=O)C(=O)N[C@H]2C(=O)N[C@H]3C(=O)N[C@H](C(=O)N[C@H](C(=O)O)c4cc(O)cc(O)c4-c4cc3ccc4O)[C@H](O)c3ccc(c(Cl)c3)Oc3cc2cc(c3O[C@@H]2O[C@H](CO)[C@@H](O)[C@H](O)[C@H]2O[C@H]2C[C@](C)(N)[C@H](O)[C@H](C)O2)Oc2ccc(cc2Cl)[C@H]1O [Vancomycin, reference compound] | – | – | – | – | – | – | – | 1 | 2 | 1 | 32 | 64 | 1 | 1 | > 64 | 1 | 64 | 2 | 1 | MBC [1]: 1 µg/mL (≈ 0.69 µM); MBC [2]: 2 µg/mL (≈ 1.38 µM); MBC [3]: > 64 µg/mL; MBC ([4]; ATCC700677, read-out: MBC S. pneumoniae ATCC 700677): 2 µg/mL (≈ 1.38 µM); MBC [5]: > 64 µg/mL; MBC [6]: 2 µg/mL (≈ 1.38 µM); MBC [7]: > 64 µg/mL |

From patent publication US11648248B1 (King Abdulaziz University, priority 2022, dated 2023)
